# Several values for one entry are separate records, joined by “and”; a condition that tells them apart may be missing. Equal values may be shown once.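 These data come from cells grown in 96-well plates and exposed to compound for 48 hours at five concentrations. At the GI50, growth is halved. The concentration for full growth arrest is given as TGI.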
# What was measured:
# Assay in all cases: DTP human tumour cell line panel, 48 h
# A498 renal = tested on: A498 renal
# ACHN renal = tested on: ACHN renal
# EKVX NSCLC = tested on: EKVX NSCLC
# K-562 leukemia = tested on: K-562 leukemia
# SNB-19 CNS = tested on: SNB-19 CNS
# U251 CNS = tested on: U251 CNS
# UACC-257 melanoma = tested on: UACC-257 melanoma
# DU-145 prostate = tested on: DU-145 prostate
# T-47D breast = tested on: T-47D breast
# MDA-MB-435 = tested on: MDA-MB-435
Compound,TGI (A498 renal) [µM],TGI (ACHN renal) [µM],TGI (EKVX NSCLC) [µM],TGI (K-562 leukemia) [µM],TGI (SNB-19 CNS) [µM],TGI (U251 CNS),TGI (UACC-257 melanoma),GI50 (A498 renal) [µM],GI50 (ACHN renal) [µM],GI50 (DU-145 prostate) [µM],TGI (DU-145 prostate) [µM],GI50 (EKVX NSCLC) [µM],GI50 (K-562 leukemia) [µM],GI50 (SNB-19 CNS) [µM],GI50 (T-47D breast) [µM],TGI (T-47D breast) [µM],GI50 (U251 CNS) [µM],GI50 (UACC-257 melanoma) [µM],GI50 (MDA-MB-435) [µM],TGI (MDA-MB-435) [µM]
CC(=O)CCCCO,> 100,> 100,> 100,> 100,> 100,> 100 µM,> 100 µM,,,,,,,,,,,,,
COc1ccc(C(=O)c2cc3c(OC)c(OC)c(OC)cc3[nH]2)cc1,47.7,> 100,> 100,> 100,> 100,> 100 µM,> 100 µM,6.45,12.8,> 100,> 100,5.14,1.1,18.6,4.53,> 100,5.2,> 100,,
S=C1Nc2ccc(Cl)cc2C2(c3ccccc3)N3CCN=C3NN12 (stereo unspecified),,> 100,> 100,66.1,> 100,> 100 µM,> 100 µM,,55.9,40,> 100,55.7,24.9,36.9,30.8,99,35.1,37,43.2,> 100
COc1ccc(-c2ccc(-c3ccc(-c4ccc(C(=N)N)cc4)s3)s2)cc1OC,27.8,15.3,,5.47,16.6,,54.3 µM,11,3.79,0.478,2.23,,1.9,3.01,3.09,31.8,,22,5.32,20.2
Cc1cc(NS(=O)(=O)c2ccc(NC(=O)c3cccc4c(Nc5ccc(S(=O)(=O)N=C(N)N)cc5)c5ccccc5nc34)cc2)no1,> 100,> 100,> 100,> 100,> 100,> 100 µM,> 100 µM,,,,,,,,,,,,,
NC(N)=NNC(=O)CCCCCCCC(=O)NN=C(N)N,> 100,> 100,> 100,> 100,> 100,> 100 µM,> 100 µM,,,,,,,,,,,,,
Nc1c(C(=O)Nc2ccccc2)[n+]([O-])c2ccccc2[n+]1[O-],31,30.1,56.9,> 100,31,26.3 µM,59.4 µM,,,,,,,,,,,,,
COc1ccc(/C=C\c2cc(OC)c(OC)c(OC)c2)cc1OC(=O)CCC(=O)O,,> 100,> 100,,> 100,,,< 0.0001,,,,51.5,,,,97.1,,< 0.0001,,< 0.0001
c1ccc2c(c1)[nH]c1cnc3c4cccnc4[nH]c3c12,> 100,23.4,39,46.4,37.3,,52.4 µM,,,,,,,,,,,,,
COc1ccc2c(c1)C(c1ccccc1Cl)=Nc1c(n[nH]c1C)N2,> 25,> 25,,> 25,> 25,> 25 µM,> 25 µM,1.88,> 20.5,> 25,> 25,,> 25,> 25,> 17.6,> 25,5.74,> 25,> 25,> 25
COc1cc2c(cc1O)CC13CCC(=O)N1CCc1cc(OC)c(O)c-2c13 (stereo unspecified),> 68.1,> 68.1,> 68.1,> 68.1,> 68.1,,> 68.1 µM,,,,,,,,,,,,,
O=C(Cc1cccc(OC(F)(F)F)c1)Nc1ccc(CCCCc2nnc(NC(=O)Cc3ccccn3)s2)nn1,,> 100,68.7,> 100,> 100,,> 100 µM,,20.9,25.8,> 100,13.3,16.9,29.4,3.46,26.5,,29.3,30.4,> 100
C=C1C(=O)O[C@H]2[C@H]1CC/C(COC(=O)CSCC(=O)OC/C1=C/CC[C@@]3(C)O[C@H]3[C@H]3OC(=O)C(=C)[C@@H]3CC1)=C\CC[C@@]1(C)O[C@@H]21,,2.48,4.12,4.06,13.9,11.3 µM,4.3 µM,,1.23,1.5,3.05,1.82,0.636,3.11,2.16,5.72,3.19,1.76,1.69,3.92
CC(=O)OC1(C)C(=O)OC1(C)C(C)=O (stereo unspecified),> 100,> 100,> 100,> 100,> 100,> 100 µM,> 100 µM,,,,,,,,,,,,,
Cc1ccc(-c2cc(C3=CC(=O)C=CC3=O)n(-c3ccc(S(N)(=O)=O)cc3)n2)cc1,,> 100,> 100,> 100,> 100,> 100 µM,> 100 µM,,42.9,,,47.8,34.4,63.7,46.8,> 100,42.4,> 100,59.4,> 100
CCN(c1ccc(Br)cc1)c1c(Br)c(=O)nc2ccccn12,> 100,> 100,> 100,> 100,> 100,> 100 µM,,,,,,,,,,,,,,
CCCCOC(=O)NC(=O)c1cn(CCSCCOC(=O)NCCCCCCNC(=O)OCCSCCn2cc(C(=O)NC(=O)OCCCC)c(=O)[nH]c2=O)c(=O)[nH]c1=O,64.7,> 100,> 100,> 100,> 100,74.1 µM,> 100 µM,,,,,,,,,,,,,
O=C(CCl)N1c2ccccc2Sc2ccc3ccccc3c21,3.31,2.01,,3.49,3.09,2.95 µM,2.87 µM,1.73,0.801,1.53,2.9,,0.659,1.58,1.66,3.69,1.55,1.48,1.46,3.01
CC(C)(C)C(=O)ON1N=NC2C3CC(OCc4ccccc4)(OCc4ccccc4)C(O3)C21 (stereo unspecified),> 100,91.5,,37,,31.4 µM,29.2 µM,,,,,,,,,,,,,
O=C(N/N=C/c1ccccc1O)C(=O)Nc1ccc(F)cc1,> 100,> 100,,> 100,> 100,> 100 µM,15 µM,83.4,3.02,7.14,> 100,,5.02,4.91,6.63,> 100,2.75,2.85,8.4,> 100

Compound,TGI (A498 renal) [µM],TGI (ACHN renal) [µM],TGI (EKVX NSCLC) [µM],TGI (K-562 leukemia) [µM],TGI (SNB-19 CNS) [µM],TGI (U251 CNS),TGI (UACC-257 melanoma),GI50 (A498 renal) [µM],GI50 (ACHN renal) [µM],GI50 (DU-145 prostate) [µM],TGI (DU-145 prostate) [µM],GI50 (EKVX NSCLC) [µM],GI50 (K-562 leukemia) [µM],GI50 (SNB-19 CNS) [µM],GI50 (T-47D breast) [µM],TGI (T-47D breast) [µM],GI50 (U251 CNS) [µM],GI50 (UACC-257 melanoma) [µM],GI50 (MDA-MB-435) [µM],TGI (MDA-MB-435) [µM]
C1OC1CO[C@@H]1CO[C@H]2[C@@H]1OC[C@H]2OCC1CO1 (stereo partly specified),> 100,> 100,> 100,> 100,> 100,> 100 µM,> 100 µM,,,,,,,,,,,,,
NC(=O)C(c1ccccc1)N1CCOCC1 (stereo unspecified),> 100,> 100,,> 100,,> 100 µM,> 100 µM,,,,,,,,,,,,,
O=C(O)c1cc2cc(OCc3ccccc3)c(OCc3ccccc3)cc2[nH]1,,90.1,38.9,> 100,> 100,37 µM,62.9 µM,,25.4,32.8,> 100,17.8,29.3,32.1,23.9,> 100,17.7,22.2,19.2,47.9
CCCCCCCCCCCCSC(=N)N,31.4,15.9,,4.64,45.7,8.74 µM,27.3 µM,15.3,3.89,8.98,23,,2.01,15.7,2.03,4.34,2.64,13.8,3.9,15.3
O=C1CN(C(=O)c2ccccc2)Cc2[nH]c3ccccc3c21,,> 100,> 100,> 100,> 100,> 100 µM,> 100 µM,,,,,,,,,,,,,
CCOC(=O)/C=C/C(C(=O)/C=C/c1ccc(O)c(OC)c1)=C(O)\C=C\c1ccc(O)c(OC)c1,,6.25,42,> 100,27.2,12.5 µM,4.9 µM,,2.36,4.43,18.7,5.75,5.66,5.14,8.07,> 100,0.613,2.06,3.29,9.31
CCSC1=C(C)N(C=NC(C)(C)C)CC1,> 100,> 100,> 100,> 100,> 100,> 100 µM,> 100 µM,,,,,,,,,,,,,
O=C1C(=O)N(c2ccc(Cl)cc2Cl)C(=O)C(=O)C1c1nc2ccccc2o1,> 100,> 100,> 100,> 100,> 100,> 100 µM,> 100 µM,,,,,,,,,,,,,
COc1cc(-c2nc3sc4c(c3c(=O)[nH]2)CCCCCC4)cc(OC)c1OC,3.17,> 33.2,,> 33.2,> 33.2,,> 33.2 µM,0.694,1.79,1.78,> 33.2,,0.263,1.56,1.4,> 33.2,,3,0.115,0.611
COc1cc2c[n+](C)c3c4ccccc4ccc3c2cc1OC (tested in a mixture with another compound),,> 100,41.8,,25.1,6.36 µM and 16.9 µM,6.15 µM and 49 µM,,,13.5,69.6,1.47,2.29,0.964,4.68,63.3,1.31,2.11,8.92,21.5
O=C1c2c(n(Cc3ccccc3)c(=O)n2Cc2ccccc2)C(=O)N1Cc1ccccc1,> 100,> 100,> 100,> 100,> 100,> 100 µM,> 100 µM,,,,,,,,,,,,,
O=c1cc(-c2ccccc2)[nH]n1-c1nc2ccccc2[nH]1,22.9,> 100,,> 100,> 100,,> 100 µM,3.72,4.36,9.97,> 100,,3.94,4.89,4.41,> 100,,6.18,5.07,> 100
CN1CC(C(=O)C2C(=O)c3ccccc3C2=O)C(=O)C(=O)C(C(=O)C2C(=O)c3ccccc3C2=O)C1 (stereo unspecified),> 100,> 100,,> 100,> 100,> 100 µM,> 100 µM,,,,,,,,,,,,,
CC#CC1/C(=C\C(=O)OC)CCCC1O (stereo unspecified),> 100,> 100,> 100,> 100,> 100,> 100 µM,> 100 µM,,,,,,,,,,,,,
CCN(CCCl)CCCNc1c2ccccc2nc2ccc(OC)cc12,356,1.34,,,,,,,,,,557,116,205,,,387,457,,
O=C(CC(=O)N1N=C(N2c3ccccc3Sc3ccccc32)CC1c1ccccc1)Nc1ccc(Cl)cc1 (stereo unspecified),> 100,> 100,> 100,,> 100,> 100 µM,> 100 µM,,,,,,,,,,,,,
CCOC(=O)C1SC(=Nc2ccc(Cl)c(Cl)c2)N=C1C (stereo unspecified),84.3,> 100,> 100,32.5,> 100,> 100 µM,> 100 µM,,,,,,,,,,,,,
CO[C@@H]1/C=C(C)/C=C/[C@@H](C)/C=C(\C)C(=O)OC(/C(C)=C/C=C(\C)CNC(=O)[C@H](CO)NC=O)[C@@H](C)/C=C/C=C/[C@H](OC)CC/C=C(C)/C=C/C1 (stereo partly specified),,0.187,15.6,0.238,9.12,0.214 µM,0.0365 µM,,0.00904,0.169,14.5,5.56,< 0.005,0.303,0.0243,16.8,< 0.005,0.0238,< 0.005,< 0.005
CC1=CCC23C(C1)OC(Br)(C=CC2(C)O)C3(C)C (stereo unspecified),> 100,> 100,> 100,> 100,,,> 100 µM,,,,,,,,,,,,,
